Data: patent US20060122150A1, “Pharmaceutical composition and method for treating a joint-capsule arthropathy” (priority 2004, published 2006)

Columns and labels:
5LO-1 = target: T1, 5LO-1 (Homo sapiens, UniProt P09917); assay: In vitro efficacy: inhibitor of 5LO-1; format: biochemical
T1 sequence (P09917 1-674): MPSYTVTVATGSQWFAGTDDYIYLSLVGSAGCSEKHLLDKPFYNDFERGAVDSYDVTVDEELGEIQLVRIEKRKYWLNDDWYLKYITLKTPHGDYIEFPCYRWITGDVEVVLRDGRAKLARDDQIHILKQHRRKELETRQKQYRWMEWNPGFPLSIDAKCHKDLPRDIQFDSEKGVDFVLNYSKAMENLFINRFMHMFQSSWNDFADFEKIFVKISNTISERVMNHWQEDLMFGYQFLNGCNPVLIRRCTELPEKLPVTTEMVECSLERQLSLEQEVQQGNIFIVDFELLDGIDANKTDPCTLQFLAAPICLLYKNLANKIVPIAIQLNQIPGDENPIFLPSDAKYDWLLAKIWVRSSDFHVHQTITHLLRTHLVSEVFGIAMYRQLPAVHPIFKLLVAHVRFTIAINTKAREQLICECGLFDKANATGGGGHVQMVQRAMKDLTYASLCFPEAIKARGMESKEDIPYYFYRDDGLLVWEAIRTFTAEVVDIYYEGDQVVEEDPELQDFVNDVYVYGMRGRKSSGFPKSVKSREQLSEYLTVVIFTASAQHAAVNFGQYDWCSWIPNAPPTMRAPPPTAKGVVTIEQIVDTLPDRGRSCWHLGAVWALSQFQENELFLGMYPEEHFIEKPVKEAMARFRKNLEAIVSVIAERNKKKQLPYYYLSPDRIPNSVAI

[1] = system: Rabbit Anterior Cruciate Ligament Transection (ACLT) Model; assay: Rabbit ACLT osteoarthritis model, NSAID dispersed in HA (Example 4); format: in vivo, New Zealand White Rabbits; details: intra-articular 160 μL once per week for 5 weeks
Text: Osteoarthritis is a degenerative disease that degrades cartilage, resulting in pain, restriction of motion and deformity. In the ACLT model, the appearance of OA can be seen at 6 weeks and is characterized by erosion of cartilage on the trochlear grove and mild to serious cartilage erosion on the femoral condyle. The last symptoms to arise are on the tibial plateau. At 6 weeks, there is some damage visible on the tibial plateau, but the damage may not be great given the length of the study. […] While osteophyte formation is a factor in the analysis, several parameters are observed, wherein each parameter alone is not sufficient to draw a conclusion. Therefore, the composite score provides a more meaningful result for a particular agent tested.
The ACLT model was used to evaluate the ability of a NSAID agent in a pharmaceutical formulation administered directly into the intra-articular capsule of the knee to reduce the incidence of osteoarthritic changes. The NSAIDs formulations prepared in Example 2 were used and injected 6 weeks after animal preparation. A commercially available form of purified HA was used as the vehicle control. The animals (n=7 per group) were dosed (160 μL per injection) once per week for 5 weeks.
Female New Zealand White Rabbits (n=84, Milibrook Breeding Labs, SPF) used in the study underwent ACLT on the right knee.
One week after the last injection (total 12 weeks from time of ACLT), animals were euthanized and gross observations were made on the knee joints. Histological sectioning and staining were performed on the condyles.
The joints were analyzed for disease state in the trochlear groove, the femoral condyles and the tibial plateau. Pathological assessments were performed on the sectioned tissue. Condylar structure, cellularity, presence of GAG (glycosaminoglycans) and presence of cartilage were evaluated.
On the anterior surface of the femur (trochlear groove), the number of osteophytes, the size (diameter) of osteophytes, the presence of trochlear groove thickening and the erosion of cartilage were evaluated grossly.
On the femoral condyles, the erosion of cartilage (% surface area) (both medial and lateral condyle), the erosion of cartilage (depth) and the presence of clefts were evaluated grossly.
On the tibial plateau, observations on the thickening, presence of clefts and erosion were made.
Each parameter was given a score. The combination of all parameters gave a Total Score. A higher score indicates more damage to the joint. The data for un-operated joints (no surgery) has been included as a baseline for a normal joint.

COX-1 = COX-1 (Homo sapiens, UniProt P23219); assay: In vitro efficacy: inhibitor of COX-1; format: biochemical
Chain of COX-1 (P23219 24-599): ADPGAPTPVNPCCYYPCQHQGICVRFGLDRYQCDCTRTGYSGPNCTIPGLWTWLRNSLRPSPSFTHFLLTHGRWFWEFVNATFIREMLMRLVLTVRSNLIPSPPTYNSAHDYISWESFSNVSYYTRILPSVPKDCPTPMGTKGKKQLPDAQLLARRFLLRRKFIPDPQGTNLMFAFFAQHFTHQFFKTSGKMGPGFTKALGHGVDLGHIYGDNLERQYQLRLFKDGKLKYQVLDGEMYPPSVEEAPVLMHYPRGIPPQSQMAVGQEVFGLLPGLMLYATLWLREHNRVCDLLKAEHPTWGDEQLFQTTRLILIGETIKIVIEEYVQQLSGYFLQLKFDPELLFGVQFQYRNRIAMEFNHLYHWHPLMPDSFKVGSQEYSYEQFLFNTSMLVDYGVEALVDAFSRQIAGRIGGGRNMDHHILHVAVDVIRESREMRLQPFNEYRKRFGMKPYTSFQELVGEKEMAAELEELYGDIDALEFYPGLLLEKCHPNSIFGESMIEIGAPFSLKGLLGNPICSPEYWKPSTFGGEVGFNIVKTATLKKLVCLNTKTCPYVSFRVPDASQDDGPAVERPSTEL

COX-2 = target: T2, COX-2 (Homo sapiens, UniProt P35354); assay: In vitro efficacy: inhibitor of COX-2; format: biochemical
T2 sequence (P35354 18-604): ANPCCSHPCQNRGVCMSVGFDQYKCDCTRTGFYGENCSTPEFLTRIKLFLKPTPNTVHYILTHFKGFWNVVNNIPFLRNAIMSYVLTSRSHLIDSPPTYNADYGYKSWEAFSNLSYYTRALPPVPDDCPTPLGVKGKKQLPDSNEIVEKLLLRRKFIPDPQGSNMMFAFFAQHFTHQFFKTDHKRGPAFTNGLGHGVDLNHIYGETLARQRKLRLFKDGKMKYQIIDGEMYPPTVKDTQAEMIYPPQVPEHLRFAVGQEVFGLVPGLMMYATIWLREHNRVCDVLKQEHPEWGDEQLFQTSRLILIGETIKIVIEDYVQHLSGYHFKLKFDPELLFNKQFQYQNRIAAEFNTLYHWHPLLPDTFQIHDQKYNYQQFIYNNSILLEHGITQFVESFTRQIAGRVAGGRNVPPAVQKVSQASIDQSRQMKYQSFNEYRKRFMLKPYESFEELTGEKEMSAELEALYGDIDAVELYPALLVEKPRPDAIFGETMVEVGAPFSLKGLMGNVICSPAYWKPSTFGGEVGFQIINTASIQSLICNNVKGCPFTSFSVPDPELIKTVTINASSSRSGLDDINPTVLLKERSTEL

TXB2 = assay: In vitro efficacy: inhibitor of TXB2; format: biochemical
LTB4 = assay: In vitro efficacy: inhibitor of LTB4; format: biochemical

SMILES	IC50 (5LO-1) [nM]	All Cartilage Effects composite score ([1]; high dose)	Total Score (composite of all scoring criteria) ([1]; high dose)	Medial Femoral Condyle (% Surface Area Erosion) score ([1]; low dose)	All Cartilage Effects composite score ([1]; mid dose)	All Tibial Plateau Effects composite score ([1]; mid dose)	Lateral Femoral Condyle (% Surface Area Erosion) score ([1]; mid dose)	Medial Femoral Condyle (% Surface Area Erosion) score ([1]; mid dose)	Total Score (composite of all scoring criteria) ([1]; mid dose)	IC50 (COX-1) [nM]	IC50 (COX-2) [nM]	All Trochlear Groove Effects composite score ([1]; high dose)	Trochlear Groove (Erosion of Cartilage) grade ([1]; high dose)	further results
CC(C(=O)O)c1ccc(C(=O)c2cccs2)cc1 (stereo not drawn) [Suprofen]	3000	lower mean scores than the No Injection treated group	numerically less average scores than the No Injection treated group	the same average score as No Injection but scored better than Vehicle	lower mean scores than the No Injection treated group	lower average scores than the No Injection treated group	average numerical scores less than Vehicle and No Injection treated groups	average numerical scores less than Vehicle and No Injection treated groups	numerically less average scores than the No Injection treated group	60	1000			All Trochlear Groove Effects composite score ([1]; all dose groups): lower mean scores than Vehicle and No Injection treated groups; Trochlear Groove (Erosion of Cartilage) grade ([1]; all dose levels): numerically lower than the Vehicle control and No Injection treated groups; Lateral Femoral Condyle (% Surface Area Erosion) score ([1]; high dose): average numerical scores less than Vehicle and No Injection treated groups
COc1ccc(-n2nc(CCC(=O)N(C)O)cc2-c2ccc(Cl)cc2)cc1 [Tepoxalin]	170	lower mean scores than the No Injection treated group	numerically less average scores than the No Injection treated group		lower mean scores than the No Injection treated group		average numerical scores less than Vehicle and No Injection treated groups			970	2000	lower mean scores than Vehicle and No Injection treated groups	numerically lower than the Vehicle control and No Injection treated groups	IC50 (TXB2): 2 nM; Medial Femoral Condyle (% Surface Area Erosion) score ([1]; all dose groups): average numerical scores less than Vehicle and No Injection treated groups; Total Score (composite of all scoring criteria) ([1]; low dose): numerically less average scores than the No Injection treated group; IC50 (LTB4): 40 nM
Cc1ccc(C(=O)c2ccc(CC(=O)O)n2C)cc1 [Tolmetin]	30			average numerical scores less than Vehicle and No Injection treated groups	lower mean scores than the No Injection treated group	lower average scores than the No Injection treated group	average numerical scores less than Vehicle and No Injection treated groups	average numerical scores less than Vehicle and No Injection treated groups	numerically less average scores than the No Injection treated group	3000	50	lower mean scores than Vehicle and No Injection treated groups	numerically lower than the Vehicle control and No Injection treated groups	Femoral Condyle (Depth of Erosion) score ([1]; high dose): the same average score as the No Injection group
